Patent US20190352288A1, “MATRIX METALLOPROTEINASE (MMP) INHIBITORS AND METHODS OF USE THEREOF” (Foresee Pharmaceuticals Co., Ltd., priority 2018, published 2019)
Entries after “also recorded” stand apart in the source; their conditions may differ.

Legend:
[1] = tested on: SD rat kidney fibrosis model by unilateral ureteral occlusion (UUO); experiment: Efficacy study on SD rat kidney fibrosis model by unilateral ureteral occlusion (UUO); type: in vivo, Sprague Dawley (SD) rats
Procedure: This study was to evaluate the therapeutic efficacy of MMP-12 inhibitor, PC-16 on a renal fibrosis model by unilateral ureteral occlusion (UUO). Male Sprague Dawley (SD) rats (180-220 g, n=71) were used in this study. Animals were randomly divided into 4 groups: vehicle group (group-1, n=8), PC-16 2 mg/kg/day group (group-2, n=9), PC-16 6 mg/kg/day group (group-3, n=10), PC-16 20 mg/kg/day group (group-4, n=9). Animals were anesthetized with 2.5% isoflurane inhelation. The left ureter was ligated to create a unilateral ureteral occlusion (UUO) model to induce renal fibrosis. The test article, PC-16 was administrated twice a day via oral delivery after modeling for 14 days. Peripheral blood serum was prepared at pre-modeling and day-15 (one day after last dosing). All animals were euthanized and processed for left kidney pathology studies.
Animals: Gender: Male, SD rats, 180-220 g, total 71. Certificate: 11400700272659, Beijing Vital River Laboratory Animal Technology Co., Ltd., China. Animal holding: Animals were maintained in a temperature-controlled environment with a 12 hours light/12 hours dark cycle and free access to food and water. Experimental procedures were performed according to IACUC guidelines in the KCI (SuZhou) Biotech Inc. (KCI) animal research facility. Model creation: Total […] male SD rats were used in this study. After anesthesia with 2.5% isoflurane inhalation the animal abdomen was opened surgically. The left ureter was exposed and ligated close to the bladder to create the UUO model. After confirming no bleeding, the abdomen wall was closed in layers. The animals were maintained under temperature controlled pad (37° C.) for the recovery from anesthesia, and then were transferred to holding cages with regular food and water.
Experiment grouping: UUO modeling animals were divided into 7 groups randomizedly as vehicle (group-1, n=8), PC-16 2 mg/kg/day (group-5, n=9), PC-16 6 mg/kg/day (group-6, n=10), PC-16 20 mg/kg/day (group-7, n=9) (Table 4.1). Dosing regimen: All test articles were designed as an oral administration via a gastric perfusion. Test articles were designed to be delivered twice a day starting on the same day of modeling for 14 days (Table 4.1). Endpoints: 1) Blood collection: Peripheral blood was collected from all animals in each group and prepared for serum at pre-modeling and day-15 (one day after last dosing), stored at −80° C. All animals were euthanized according to KCI SOP. After confirming animal death without breath and heart bite the left kidneys were perfused with cold PBS followed by 10% neutral formalin and collected for further pathology study. 2) Detection of serum BUN and creatinine: The serum BUN and creatinine level were detected with Hitachi 7060 automatic biochemical analyzer and related test kits. 3) Kidney pathology examination: 3a) Kidney H&E staining and analysis: Following KCI's pathologic SOP all left kidneys were fixed in 10% formalin for at least 24 h at room temperature. After fixation, the kidney was cut longitudinally to get the largest surface and dehydrated in graded ethanol, cleared in xylene, and embedded in paraffin. Thin sections (3-μm) were mounted on glass slides, dewaxed, rehydrated to distilled water, and stained with hematoxylin and eosin (H&E). All stained slides were scanned with NanoZoomer Digital Pathology (S210, Hamamaci, Japan) scanner. Semi quantitative evaluation of the degree of tubular epithelial flattening and dilatation were graded from 0-5 according to the percentage of tubular involvement: score 0=no damage; score 1=1-10% damage; score 2=10-25% damage; score 3=25-50% damage; score 4=50-75% damage; score 5=75-100% damage. Semi quantitative evaluation of the tubular necrosis is graded from 0 to 3 according to the percentage of tubular involvement: score 0=no necrosis; score 1=<25% necrosis; score 2=25-50% necrosis; score 3=>50% necrosis. The average of tubular flattening and dilatation and necrosis as the total tubular damage was presented. […]

recombinant human MMP-13 = recombinant human MMP-13 (Homo sapiens, UniProt P45452); experiment: MMP selectivity assay, MMP-13; type: biochemical; conditions: Table 2 selectivity profile
Procedure: (§1) The inhibitory effect of compounds on the rate of cleaving fluorogenic MMP substrate (Enzo, BML-P128) by recombinant human MMP-12 catalytic domain (Enzo, BML-SE138) was carried out by methods known in the art. Briefly, to each well of a 96-well black opaque plate, all the reagents were sequentially added by pipetting, and the final reaction contained 4 nM of recombinant human MMP-12 catalytic domain, 4 μM of fluorogenic MMP substrate, and various concentrations (0.15 nM to 10,000 nM) of tested compound dilutions in HEPES buffer (pH 7.5) containing 10 mM of CaCl2), 0.01% Brij® 35 (polyoxyethylene (23) lauryl ether), and 0.1 mg/ml of BSA.
(§2) The enzyme and compounds were pre-incubated on a shaker to mix in wells. After an hour of mixing, fluorogenic substrate was added to each well. Reaction without enzyme was used as a blank control in the plate. The plate was then fed into a plate reader to measure fluorescence intensity at Excitation/Emission wavelengths of 340 nm/440 nm every 10 mins for at least 1 hour at 37° C. The IC50 of each compound in MMP-12 inhibition was determined by using a readout obtained at time point 30 minutes.
(§3) The MMP selectivity assay was performed by using other recombinant human MMPs, including MMP-1, MMP-2, MMP-3, MMP-7, MMP-8, MMP-9, MMP-10, MMP-13, and MMP-14. The IC50 of the compounds for the other recombinant human MMPs was determined as described above in Example 1, and are shown in Table 2.

recombinant human MMP-7 = biological target: T1, recombinant human MMP-7 (Homo sapiens, UniProt P09237); experiment: MMP selectivity assay, MMP-7; type: biochemical; conditions: Table 2 selectivity profile
T1 sequence (P09237 95-267): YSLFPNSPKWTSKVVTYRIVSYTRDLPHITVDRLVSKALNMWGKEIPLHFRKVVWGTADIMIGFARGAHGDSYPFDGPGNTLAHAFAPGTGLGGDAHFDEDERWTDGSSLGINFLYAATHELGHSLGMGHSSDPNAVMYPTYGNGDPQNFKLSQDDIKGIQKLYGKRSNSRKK
Procedure: as §1, §2, §3

recombinant human MMP-10 = recombinant human MMP-10 (Homo sapiens, UniProt P09238); experiment: MMP selectivity assay, MMP-10; type: biochemical; conditions: Table 2 selectivity profile
Chain of recombinant human MMP-10 (P09238 99-476): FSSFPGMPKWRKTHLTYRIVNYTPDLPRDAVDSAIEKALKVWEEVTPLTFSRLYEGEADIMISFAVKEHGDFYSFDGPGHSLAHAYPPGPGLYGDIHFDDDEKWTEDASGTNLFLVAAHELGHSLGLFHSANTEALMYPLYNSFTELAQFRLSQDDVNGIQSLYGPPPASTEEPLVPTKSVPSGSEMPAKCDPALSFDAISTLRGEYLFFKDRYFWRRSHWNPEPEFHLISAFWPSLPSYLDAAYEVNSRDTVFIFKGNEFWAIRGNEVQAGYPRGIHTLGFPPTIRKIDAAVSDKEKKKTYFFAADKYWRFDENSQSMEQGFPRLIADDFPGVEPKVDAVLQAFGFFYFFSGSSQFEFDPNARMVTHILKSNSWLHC
Procedure: as §1, §2, §3

[2] = biological target: T2, recombinant human MMP-12 catalytic domain (Homo sapiens, UniProt P39900); experiment: MMP-12 inhibitory assay (fluorogenic substrate cleavage); type: biochemical; conditions: readout at 30 minutes, 37° C., Table 1
T2 construct: recombinant human MMP-12 catalytic domain; purchased Enzo BML-SE138
T2 sequence (P39900 106-268 limits assumed): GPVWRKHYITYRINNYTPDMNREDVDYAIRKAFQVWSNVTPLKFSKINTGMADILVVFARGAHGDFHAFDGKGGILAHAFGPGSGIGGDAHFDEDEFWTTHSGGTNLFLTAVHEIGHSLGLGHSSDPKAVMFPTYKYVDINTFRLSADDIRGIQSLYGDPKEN
Procedure: as §1, §2

[3] = UUO rats, 20 mg/kg/day (p<0.05)

Cc1cc(COc2ccc(Sc3ccncc3C3NC(=O)NC3=O)cc2)ccn1 (stereo not drawn) [PC-16]
collagen-IV deposition in cortex area of left kidney (IHC) ([1]; UUO rats, 6 mg/kg/day (P<0.05)): significant reduction in collagen-IV deposition
interstitial fibrosis score in cortex ([1]; UUO rats, 20 mg/kg/day (p<0.001)): significant reduction in the fibrosis score
collagen-I deposition in cortex area of left kidney (IHC) [1, 3]: significant reduction in collagen-I deposition
collagen-IV deposition in cortex area of left kidney (IHC) [1, 3]: significant reduction in collagen-IV deposition
serum blood urea nitrogen (BUN) elevation vs vehicle/model group ([1]; UUO rats, 20 mg/kg/day oral bid 14 days, day-15, 20 mg/kg/day): slightly limit the blood urea nitrogen (BUN) elevation; also recorded: did not show a statistically significant difference
left kidney tubular damage (renal tubular damage score) ([1]; UUO rats, 2, 6, 20 mg/kg/day oral bid 14 days, 20 more effective than 2 mg/kg/day (p<0.01)): clear dose dependent effect
interstitial inflammation in cortex (semi quantitative score) ([1]; UUO rats, 2, 6, 20 mg/kg/day oral bid 14 days, dose dependent): significant reduction
interstitial fibrosis score in cortex ([1]; UUO rats, all dose groups (2, 6, 20 mg/kg/day), dose dependent): significant reduction in the fibrosis score
IC50 (recombinant human MMP-13): 1 to 10 µM
IC50 (recombinant human MMP-7): > 10 µM
IC50 (recombinant human MMP-10): 1 to 10 µM
IC50 [2]: < 10 nM
